ChEMBL document CHEMBL2057106, “Α-amino-β-fluorocyclopropanecarboxylic acids as a new tool for drug development: synthesis of glutamic acid analogs and agonist activity towards metabotropic glutamate receptor 4” (Bioorg Med Chem, 2012)
pEC50: −log10 of the molar value. The source made the active and inactive calls. No cut-off for these calls is given here.

Experiments:
[1] = biological target: Metabotropic glutamate receptor 4 (Rattus norvegicus, UniProt P31423); test: Agonist activity at rat mGlu4 receptor expressed in HEK293 cells coexpressing Gq/Gi and EAAC1 assessed as intracellular calcium production measured every 1.5 secs for 60 secs by Fluo-4-AM based fluorometry; type: functional, cell-based
[2] = Agonist activity at mGlu4a receptor assessed as inhibition of forskolin-stimulated cAMP production; type: functional, Homo sapiens
[3] = biological target: Metabotropic glutamate receptor 4 (Rattus norvegicus) (UniProt P31423); test: Ratio of (E)APCPr EC50 to compound EC50 for rat mGlu4 receptor expressed in HEK293 cells; type: cell-based
[4] = biological target: Metabotropic glutamate receptor 4 (Rattus norvegicus) (UniProt P31423); test: Agonist activity at rat mGlu4 receptor expressed in HEK293 cells coexpressing Gq/Gi and EAAC1 assessed as intracellular calcium production at 100 uM measured every 1.5 secs for 60 secs by Fluo-4-AM based fluorometry; type: functional, cell-based
[5] = biological target: Metabotropic glutamate receptor 4 (Rattus norvegicus) (UniProt P31423); test: Ratio of glutamate EC50 to compound EC50 for rat mGlu4 receptor expressed in HEK293 cells; type: cell-based

Chain of Metabotropic glutamate receptor 4 (P31423 whole entry): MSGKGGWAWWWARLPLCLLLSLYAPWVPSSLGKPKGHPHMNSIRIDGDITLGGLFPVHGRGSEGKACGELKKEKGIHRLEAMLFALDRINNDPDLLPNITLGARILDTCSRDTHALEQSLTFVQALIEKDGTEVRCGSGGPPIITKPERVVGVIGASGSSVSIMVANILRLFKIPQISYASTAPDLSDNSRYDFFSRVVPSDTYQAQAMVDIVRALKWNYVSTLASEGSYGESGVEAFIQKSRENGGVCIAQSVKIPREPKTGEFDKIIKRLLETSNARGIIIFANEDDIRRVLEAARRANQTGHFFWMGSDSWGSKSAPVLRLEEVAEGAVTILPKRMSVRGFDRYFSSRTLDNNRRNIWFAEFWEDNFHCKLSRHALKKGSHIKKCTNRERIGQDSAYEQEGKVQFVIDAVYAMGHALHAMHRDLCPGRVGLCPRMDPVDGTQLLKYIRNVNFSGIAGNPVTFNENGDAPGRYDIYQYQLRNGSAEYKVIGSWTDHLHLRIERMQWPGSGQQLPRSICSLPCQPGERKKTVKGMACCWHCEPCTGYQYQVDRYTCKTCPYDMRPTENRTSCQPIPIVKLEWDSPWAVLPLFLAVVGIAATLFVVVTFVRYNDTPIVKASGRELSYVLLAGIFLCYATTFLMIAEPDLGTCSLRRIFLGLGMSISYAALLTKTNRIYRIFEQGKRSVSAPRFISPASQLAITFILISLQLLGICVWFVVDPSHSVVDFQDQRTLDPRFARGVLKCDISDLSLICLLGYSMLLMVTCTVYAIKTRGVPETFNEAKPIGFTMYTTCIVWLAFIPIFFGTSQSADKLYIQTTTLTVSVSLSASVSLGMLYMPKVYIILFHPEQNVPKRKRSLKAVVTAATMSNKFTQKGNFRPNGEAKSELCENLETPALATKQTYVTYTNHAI
Chain of Metabotropic glutamate receptor 4 (Rattus norvegicus) (P31423 whole entry): as above

SMILES | pEC50 [1] | also measured
N[C@]1(C(=O)O)C[C@@]1(F)CS(=O)(=O)O (racemic) | 4.07 | 
N[C@]1(C(=O)O)C[C@@]1(F)CCC(=O)O (racemic) | 3.22 | 
N[C@]1(C(=O)O)C[C@H]1CP(=O)(O)O (racemic) |  | pEC50 [2]: 5.10
N[C@@]1(C(=O)O)C[C@@]1(F)C(O)P(=O)(O)O (mixture of isomers) | 2.85 | 
N[C@]1(C(=O)O)C[C@@]1(F)CC(=O)O (racemic) | 3.33 | 
N[C@@H](CCP(=O)(O)O)C(=O)O |  | pEC50 [2]: 6.37
N[C@]1(C(=O)O)C[C@@]1(F)CP(=O)(O)O (racemic) | 6.47 | Ratio EC50 [3]: 7; Activity [4]: Active; Ratio EC50 [5]: 10
N[C@@H](CCC(=O)O)C(=O)O [GLUTAMIC ACID] | 5.54 | 
